What all share (assay): NCI anticancer screen, dose series, 48 h
In assay [1] the test system is T47D.
For assay [2], the system named is RXF 393.
For assay [3], the system named is MCF7.
The subject of assay [4] is Hs-578T.
Assay [5] concerns MDA-MB-435.
Assay [6] deals with PC-3.
Assay [7] deals with KM12.
The test system of assay [8] is A498.
Assay [9] deals with Malme-3M.
Assay [10] relates to TK-10.
The test system of assay [11] is CAKI-1.
In assay [12] the test system is A549.
Assay [13] deals with NCI-H522.
Assay [14] relates to SF-295.
For assay [15], the system named is LOX IMVI.
The subject of assay [16] is SN12C.
In assay [17] the test system is SF-539.
The test system of assay [18] is HOP-92.
The test system of assay [19] is MDA-N.

Each structure is given as a SMILES string. “And” between values parts separate entries of the source, which are not always exact repeats. Equal values may be shown once.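 Tested at 5 concentrations; 48 h exposure; 96-well plates; endpoints linearly interpolated, else capped at highest concentration. The concentration for 50% growth inhibition is given as GI50.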 The source made the active and inactive calls. Rule as the data show it: active = GI50 up to about 1.1 µM and inactive = higher. Bounds are passed on as bounds.

In the case of `CCN1CCC(O)(C(C(=O)O)c2ccccc2)CC1` (stereo not drawn), the GI50 in [1], in [2], in assay [3], in assay [4], in assay [5] and in [6] was > 100 µM (inactive) each time. The GI50 in [7], in assay [8], in [9], in assay [10], in assay [11] and in [12] was > 100 µM (inactive) in each case. In addition, the GI50 in [13], in assay [14] and in assay [15] was > 100 µM (inactive) throughout.
As for `N#C/C(=C/n1c(=S)[nH]c2ccc([N+](=O)[O-])cc21)C(N)=O`, the GI50 in assay [2], in assay [3], in [4], in [5], in assay [6] and in assay [7] was > 100 µM (inactive) throughout. Also, the GI50 in assay [16], in assay [9], in [10], in [17], in assay [11] and in assay [18] was > 100 µM (inactive) each time. Also, the GI50 in assay [19], in [12], in assay [14] and in [15] was > 100 µM (inactive) in each case.
As to `O=C(N/N=C/c1cc(Br)cc(Br)c1O)c1ccccc1O`, the GI50 in assay [2] is 0.929 µM (active); in assay [7], 1.43 µM (inactive); in [9], 1.56 µM (inactive); in [10] it was 0.944 µM (active); in [17], 0.61 µM (active); in assay [11] it was 0.8 µM (active). In addition, the GI50 in [18] was 1.2 µM (inactive); in [12], 1.1 µM (active); in [13], 0.311 µM (active); in [14] it was 0.9 µM (active); in assay [15], 0.399 µM (active).
As for `COc1ccc(-n2sc3ncccc3c2=O)cc1`, the GI50 in assay [1] is 17.7 µM (inactive); in assay [3], 19.9 µM (inactive); in assay [4], 26.3 µM (inactive); in [5], 28.8 µM (inactive); in assay [6] it was 23.8 µM (inactive); in assay [7], 19.1 µM (inactive). For the same molecule, the GI50 is 38.2 µM (inactive) in [16]; 15.8 µM (inactive) in assay [9]; 18.9 µM (inactive) in assay [10]; 17.3 µM (inactive) in assay [17]; 27.7 µM (inactive) in assay [18]; 21.5 µM (inactive) in assay [19]. Also, the GI50 was 69.5 µM (inactive) in assay [12], 17.5 µM (inactive) in [13], > 100 µM (inactive) in [14] and 30.8 µM (inactive) in [15].
`NC(=O)CCC(NC(=O)c1c2ccccc2nc2ccccc12)C(=O)O` (stereo not drawn): the GI50 in assay [3], in assay [5], in [6], in assay [7], in assay [16] and in [8] was > 100 µM (inactive) each time. Further, the GI50 in assay [9], in assay [10], in assay [17], in [11], in [18] and in [19] was > 100 µM (inactive) in each case. The GI50 in assay [12], in assay [13], in [14] and in [15] was > 100 µM (inactive) each time.
Take `C1=N\CCOCC/N=C\c2ccc(cc2)OCc2cccc(n2)COc2ccc/1cc2`: the GI50 is > 100 µM (inactive) in assay [2]; 85.5 µM (inactive) in assay [3]; > 100 µM (inactive) in [4]; > 100 µM (inactive) in [5]; > 100 µM (inactive) in assay [6]; > 100 µM (inactive) in assay [7]. In addition, the GI50 in assay [16], in assay [8], in assay [9], in assay [10], in [17] and in assay [18] was > 100 µM (inactive) in each case. In addition, the GI50 in [19] is > 100 µM (inactive); in assay [12], > 100 µM (inactive); in assay [13], > 100 µM (inactive); in [14], 98.2 µM (inactive).
`O=[N+]([O-])c1cccc(-c2ccc([C@H]3CC(c4ccc(Cl)cc4)=NN3)o2)c1`: the GI50 in [1] was 11.4 µM (inactive); in assay [2], 16.8 µM (inactive); in [3], 16.3 µM (inactive); in [4], 58.9 µM (inactive); in assay [5] it was 19.2 µM (inactive); in assay [16], 16.7 µM (inactive). Further, the GI50 was 31.6 µM (inactive) in assay [8]; 15.8 µM (inactive) in assay [9]; 19.6 µM (inactive) in assay [10]; 26.1 µM (inactive) in assay [11]; 17.3 µM (inactive) in assay [18]; 24 µM (inactive) in [19]. Further, the figures for the GI50 in assay [12], in assay [13] and in assay [14] were > 100 µM (inactive), 21.2 µM (inactive) and 44.8 µM (inactive), respectively.
For `Oc1ccc2ccccc2c1/N=N/c1ccccc1`, the GI50 was > 100 µM (inactive) in assay [2]; > 100 µM (inactive) in assay [3]; > 57.3 µM (inactive) and 35.4 µM (inactive) in [4]; > 100 µM (inactive) in assay [5]; > 87.9 µM (inactive) in assay [6]; > 100 µM (inactive) in [16]. The GI50 in assay [8] is > 100 µM (inactive); in assay [9], > 100 µM (inactive); in assay [10] it was 73.3 µM (inactive); in assay [17] it was > 100 µM (inactive); in assay [11] it was > 100 µM (inactive); in [18] it was 73.5 µM (inactive). Further, the GI50 in assay [19] was > 100 µM (inactive); in assay [12], 57.5 µM (inactive); in assay [13], > 100 µM (inactive) and > 75.3 µM (inactive); in assay [15] it was > 100 µM (inactive).
On to `CC1=C2C(O)C(C(C)C(=O)NC(C)C)CCC2(C)C=CC1=O` (stereo not drawn), for which the GI50 in [2], in assay [3], in assay [7], in assay [16], in assay [8] and in assay [17] was > 100 µM (inactive) in each case. Besides, the GI50 in assay [11], in assay [18], in [12], in assay [13], in assay [14] and in assay [15] was > 100 µM (inactive) throughout.

For the origin of these results see ChEMBL document CHEMBL1201862, “PubChem BioAssay data set” (2004).
